# Experimental data as given in US20090081197A1 (Palatin Technologies, Inc., priority 2007, published 2009).
# Key:
# [1] = target: T1, MC4-R (Homo sapiens, UniProt P32245); experiment: cAMP functional activity assay in HEK-293 cells, normal system; assay type: cell-based; set-up: expressed in transfected cells; host or cells: HEK-293; details: for EC50 / intrinsic activity at MC4-R in a normal system: normal receptor density system; for intrinsic activity at MC4-R in a normal system: NDP-α-MSH = 1.0; for functional status at MC4-R in cAMP assay: normal system, 1 μM concentration where stated
# Protocol: General method for EC50 determination in functional activity assay. […] Data analysis and EC50 values were determined using nonlinear regression analysis with Prism Graph-Pad software.
# Functional status. The agonist/antagonist status with respect to MC1-R, MC-3R, MC4-R and MC5-R of certain compounds of the invention was determined. Antagonistic activity was determined by measuring the inhibition of α-MSH-induced or NDP-α-MSH-induced cAMP levels following exposure to graded doses of compounds as in the preceding descriptions.
# Assay for agonist. Evaluation of the molecules to elicit a functional response in HEK-293 cells expressing MC4-R was accomplished by measuring the accumulation of intracellular cAMP following treatment. Confluent HEK-293 cells expressing MC4-R receptors were detached by enzyme free cell suspension buffer. […] The cells were plated in a 96 well plates at a density of 0.5×10^5 cells per well and pre-incubated for 30 minutes. Test compounds (dissolved in dimethylsulfoxide (DMSO) at a concentration range of 0.05-5000 nM) were added in a total assay volume of 200 μL and cells were incubated for 1 hour at 37° C. The concentration of DMSO was always held at 1% in the assay mixture. NDP-α-MSH was used as the reference agonist. […] Data analysis and EC50 values were determined by using nonlinear regression analysis with Prism Graph-Pad software. […] Compounds with a response ratio of less than 0.1 (10%) were evaluated for antagonistic activity.
# [2] = target: T2, MC1-R (Mus musculus, UniProt Q01727); experiment: Competitive inhibition assay using [I^125]-NDP-α-MSH, B-16 mouse melanoma cell membranes; assay type: binding; details: for inhibition at 1 µM: 1 μM test compound, read-out: Inhibition at 1 μM (NDP-α-MSH) In Normal System, MC1-R; for Ki: read-out: Ki (nM) (NDP-α-MSH) In Normal System, MC1-R
# T2 construct: B-16 mouse melanoma cells (containing MC1-R); endogenous in cells
# Protocol: (§1) The ligand concentration used was 0.4 nM for MC3-R and MC5-R, 0.2 nM for MC4-R and 0.1 nM for B16-F10 (MC1-R) membranes. In certain experiments, hMC1-R was also employed.
# (§2) The assay mixture was incubated for 90 minutes at room temperature, then filtered and the membranes washed three times with ice cold buffer. The filter was dried and counted in a gamma counter for remaining radioactivity bound to the membranes. […] Each assay was conducted in triplicate and the actual mean values are described, with results less than 0% reported as 0%.
# [3] = target: T1, MC4-R; experiment: cAMP agonist stimulation, low receptor density system (0.1 ng/mL doxycycline); details: for Efficacy/Intrinsic Activity: 0.1 ng/mL doxycycline, low receptor density hMC4-R system, NDP-α-MSH maximal cAMP = 1.0
# [4] = Penile erection induction in male rats; assay type: in vivo; details: IV
# Protocol: Penile erection induction. The ability of compounds to induce penile erection (PE) in male rats was evaluated with selected compounds. Male Sprague-Dawley rats weighing 200-250 g were kept on a 12 hour on/off light cycle with food and water ad libitum. All behavioral studies were performed between 10 A.M. and 5 P.M. Groups of 4-8 rats were treated with compounds at a variety of doses via intravenous (IV) or intracerebroventricular (ICV) routes. Immediately after treatment, rats were placed into individual polystyrene cages (27 cm long, 16 cm wide, and 25 cm high) for behavioral observation. […] Controls utilized carrier without the test compound. Mean PEs in control groups were 0.17 to 0.5 PEs/rat by IV administration in various experiments and between 1-2 PEs/rat by ICV administration in various experiments, and thus only PEs with statistically relevant increases over the mean PEs in control groups are reported as inducing PEs. A PE response in IV animals greater than the mean PEs in control groups but less than 1.0 PEs/rat, particularly with less than all animals responding, was treated as equivocal, and not necessarily distinguishable from vehicle control. In selected instances, compounds with equivocal results in the IV model were tested for penile response in an ICV model, and compounds without a statistically relevant increase over the mean PEs in ICV control groups were determined to not induce PEs.
# [5] = target: T1, MC4-R; experiment: cAMP agonist stimulation, high receptor density system (10 ng/mL doxycycline); details: for Efficacy/Intrinsic Activity: 10 ng/mL doxycycline, high receptor density hMC4-R system, NDP-α-MSH maximal cAMP = 1.0
# [6] = target: MC5-R (Homo sapiens, UniProt P33032); experiment: Competitive inhibition assay using [I^125]-NDP-α-MSH, hMC5-R membranes; assay type: binding; set-up: expressed in transfected cells; details: for inhibition at 1 µM: 1 μM test compound, read-out: Inhibition at 1 μM (NDP-α-MSH) In Normal System, MC5-R; for Ki: read-out: Ki (nM) (NDP-α-MSH) In Normal System, MC5-R
# Protocol: as §1, §2
# [7] = IP (and IN) food intake, mice; assay type: in vivo; details: mouse, IP; for decrease in food intake: 20 hours; for inhibition in vivo at 10 mg/kg / maximal decrease in food intake: 4 hours; for inhibition in vivo at 10 mg/kg: read-out: maximal decrease in food intake
# Protocol: IV and IP food intake and body weight change. Change in food intake and body weight was evaluated for selected compounds. Male Sprague-Dawley rats or male C57BL/6 mice were utilized. Animals were individually housed in conventional plexiglass hanging cages and maintained on a controlled 12 hour on/off light cycle. Water and powdered (LabDiet, 5P00 Prolab RMH 3000) or pelleted (Harlan Teklad 2018 18% Protein Rodent Diet) food was provided ad libitum. For 1 week before treatment, 24-hour food intake and body weight change was recorded to assess a baseline for the group during vehicle treatment. The rats were dosed IV with vehicle or selected compounds (0.5-3 mg/kg, and in some cases up to 10 mg/Kg) or dosed intraperitoneally (IP) with vehicle or selected compounds (0.5-10 mg/kg, and in some cases up to 50 mg/kg). Mice were dosed IP. […] The changes in body weight and food intake for the 48 hour and 72 hour periods after dosing were also measured to determined reversal of changes in body weight and food intake effects back to baseline levels.
# [8] = target: MC3-R (Homo sapiens, UniProt P41968); experiment: Competitive inhibition assay using [I^125]-NDP-α-MSH, hMC3-R membranes; assay type: binding; set-up: expressed in transfected cells; details: for inhibition at 1 µM: 1 μM test compound, read-out: Inhibition at 1 μM (NDP-α-MSH) In Normal System, MC3-R; for Ki: read-out: Ki (nM) (NDP-α-MSH) In Normal System, MC3-R
# Protocol: as §1, §2
# [9] = target: T1, MC4-R; experiment: Competitive inhibition assay using [I^125]-NDP-α-MSH, hMC4-R membranes; assay type: binding; set-up: host or cells: TREx-293 (HEK-293 stably expressing Tet repressor); details: for inhibition at 1 µM: 1 μM test compound, read-out: Inhibition at 1 μM (NDP-α-MSH) In Normal System, MC4-R; for Ki: read-out: Ki (nM) (NDP-α-MSH) In Normal System, MC4-R
# Protocol: as §1, §2
# Chain of MC3-R (P41968 whole entry): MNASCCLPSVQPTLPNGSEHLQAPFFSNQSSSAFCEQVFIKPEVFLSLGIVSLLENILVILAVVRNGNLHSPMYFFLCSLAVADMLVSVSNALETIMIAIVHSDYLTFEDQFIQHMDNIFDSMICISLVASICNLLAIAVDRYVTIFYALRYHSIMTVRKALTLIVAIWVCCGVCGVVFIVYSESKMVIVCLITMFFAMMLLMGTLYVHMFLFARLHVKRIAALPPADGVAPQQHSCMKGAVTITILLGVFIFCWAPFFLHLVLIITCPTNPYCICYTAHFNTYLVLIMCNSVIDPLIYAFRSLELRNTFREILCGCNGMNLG
# T2 sequence (Q01727 whole entry): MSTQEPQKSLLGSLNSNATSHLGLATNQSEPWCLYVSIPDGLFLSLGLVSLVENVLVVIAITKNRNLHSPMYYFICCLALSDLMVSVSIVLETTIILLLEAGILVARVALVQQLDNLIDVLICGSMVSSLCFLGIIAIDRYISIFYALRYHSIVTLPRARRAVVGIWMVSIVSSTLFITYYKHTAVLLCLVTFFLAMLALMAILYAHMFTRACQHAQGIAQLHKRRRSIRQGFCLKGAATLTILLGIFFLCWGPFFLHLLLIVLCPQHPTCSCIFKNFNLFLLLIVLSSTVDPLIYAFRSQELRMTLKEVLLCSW
# Chain of MC5-R (P33032 whole entry): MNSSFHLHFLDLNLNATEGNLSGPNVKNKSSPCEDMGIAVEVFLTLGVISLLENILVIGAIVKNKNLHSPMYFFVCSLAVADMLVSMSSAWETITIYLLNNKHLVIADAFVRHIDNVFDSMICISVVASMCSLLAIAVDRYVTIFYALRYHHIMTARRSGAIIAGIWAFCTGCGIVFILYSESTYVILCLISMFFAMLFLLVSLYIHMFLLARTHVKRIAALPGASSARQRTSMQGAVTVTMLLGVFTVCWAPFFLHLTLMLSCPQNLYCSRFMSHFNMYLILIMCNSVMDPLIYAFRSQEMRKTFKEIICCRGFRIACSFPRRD
# T1 sequence (P32245 whole entry): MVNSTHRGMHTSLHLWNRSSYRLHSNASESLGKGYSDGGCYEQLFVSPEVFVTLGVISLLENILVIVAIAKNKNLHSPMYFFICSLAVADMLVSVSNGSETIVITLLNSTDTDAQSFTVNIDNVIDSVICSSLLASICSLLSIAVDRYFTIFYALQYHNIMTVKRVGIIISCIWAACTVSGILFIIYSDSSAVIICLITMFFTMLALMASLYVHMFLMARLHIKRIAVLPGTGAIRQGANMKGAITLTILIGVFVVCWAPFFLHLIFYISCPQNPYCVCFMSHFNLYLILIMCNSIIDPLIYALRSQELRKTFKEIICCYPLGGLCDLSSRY
EC50 [1] [nM],intrinsic activity at MC4-R in a normal system [1],Ki [2] [nM],EC50 [5] [nM],Ki [6] [nM],Ki [8] [nM],Ki [9] [nM],SMILES,functional status at MC4-R in cAMP assay [1],inhibition at 1 µM [2] [%],Efficacy/Intrinsic Activity [3],Penile Erection IV ([4]; rat),Efficacy/Intrinsic Activity [5],inhibition at 1 µM [6] [%],inhibition at 1 µM [8] [%],inhibition at 1 µM [9] [%],inhibition in vivo at 10 mg/kg ([7]; 10 mg/kg) [%],further results
46,0.8,431,34,1540,526,6,Cc1ccc(C[C@@H](N)C(=O)N2C[C@@H](C)N(C(=O)Cc3ccc4ccccc4c3)C[C@@H]2CCCNC(=N)N)c(C)c1 [Example 29],agonist (intrinsic activity of 0.7 (70%) or higher is classified as an agonist),0,0.25,Yes*,0.77,7,25,85,–,"EC50 [3]: 45 nM; maximum mean PEs per rat ([4]; 0.0003 to 0.03 mg/kg): 0.5; animals responding ([4]; rat, 0.0003 to 0.03 mg/kg): no more than 50%; decrease in food intake ([7]; 3 mg/kg): 3%; decrease in food intake ([7]; 10 mg/kg): 26%"
7,–,406,–,826,634,7,"CC(=O)N[C@H](Cc1ccc2ccccc2c1)C(=O)N1C[C@@H](C)N(C(=O)Cc2ccc3ccccc3c2)C[C@@H]1CCCNC(=N)N [Example 32, N-{(R)-2-[(2S,5R)-2-(3-guanidino-propyl)-5-methyl-4-(2-naphthalen-2-yl-acetyl)-piperazin-1-yl]-1-naphthalen-2-ylmethyl-2-oxo-ethyl}-acetamide]",–,51,–,–,–,44,38,97,34,–
3,0.6,1390,39,234,136,5,"CC(=O)N[C@H](Cc1ccc(Cl)cc1C)C(=O)N1C[C@@H](C)N(C(=O)Cc2ccc3ccccc3c2)C[C@@H]1CCCNC(=N)N [Example 31, N-{(R)-1-(2-methyl, 4-chloro-benzyl)-2-[(2S,5R)-2-(3-guanidino-propyl)-5-methyl-4-(2-naphthalen-2-yl-acetyl)-piperazin-1-yl]-2-oxo-ethyl}-acetamide]",partial agonist (intrinsic activity between 0.1 (10%) and 0.7 (70%) is classified as a partial agonist),–,None,No,0.27,–,–,–,7,"penile erection response ([4]; rat, 0.0003 to 0.03 mg/kg): no penile activity response"
42,–,227,50,548,596,19,"C[C@@H]1CN(C(=O)[C@H](N)Cc2ccc3ccccc3c2)[C@@H](CCCNC(=N)N)CN1C(=O)Cc1ccc2ccccc2c1 [Example 33, N-{3-[(2S)-1-[(R)-2-Amino-3-(naphthlene-2-yl)-propionyl]-5(R)-methyl-4-(2-naphthalen-2-yl-acetyl)-piperazin-2-yl]-propyl}-guanidine]",–,43,–,–,–,50,40,89,25,–

SMILES,EC50 [1] [nM],intrinsic activity at MC4-R in a normal system [1],Ki [2] [nM],EC50 [5] [nM],Ki [6] [nM],Ki [8] [nM],Ki [9] [nM],functional status at MC4-R in cAMP assay [1],inhibition at 1 µM [2] [%],Efficacy/Intrinsic Activity [3],Penile Erection IV ([4]; rat),Efficacy/Intrinsic Activity [5],inhibition at 1 µM [6] [%],inhibition at 1 µM [8] [%],inhibition at 1 µM [9] [%],inhibition in vivo at 10 mg/kg ([7]; 10 mg/kg) [%],further results
"C[C@@H]1CN(C(=O)[C@H](N)Cc2ccc(Cl)cc2)[C@@H](CCCNC(=N)N)CN1CCc1ccc2ccccc2c1 [Example 28, N-{3-[1-[2(R)-Amino-3-(4-chloro-phenyl)-propionyl]-5(R)-methyl-4-(2-naphthalen-2-yl-ethyl)-piperazin-2(S)-yl]-propyl}-guanidine]",–,0.8,–,24,–,–,–,agonist (intrinsic activity of 0.7 (70%) or higher is classified as an agonist),64,0.29,No,0.75,61,70,97,–,"EC50 [3]: 106 nM; penile erection response ([4]; rat, 0.003 to 3 mg/kg): no penile erections; maximal decrease in food intake ([7]; 3 mg/kg): 46%"
"CC(=O)N[C@H](Cc1ccc2ccccc2c1)C(=O)N1C[C@@H](CC(C)C)N(CCc2ccc3ccccc3c2)C[C@@H]1CCCNC(=N)N [Example 12, N-{2-[2(S)-(3-Guanidino-propyl)-5(R)-isobutyl-4-(2-naphthalen-2-yl-ethyl)-piperazin-1-yl]-1(R)-naphthalen-2-ylmethyl-2-oxo-ethyl}-acetamide]",–,–,4620,–,–,–,–,–,0,None,–,None,64,40,100,–,maximal decrease in food intake ([7]; 10 mg/kg): 46%
"CC(=O)N[C@H](Cc1ccc(C)cc1C)C(=O)N1C[C@@H](C)N(CCc2ccc3ccccc3c2)C[C@@H]1CCCNC(=N)N [Example 25, N-{1(R)-(2,4-Dimethyl-benzyl)-2-[2(S)-(3-guanidino-propyl)-5(R)-methyl-4-(2-naphthalen-2-yl-ethyl)-piperazin-1-yl]-2-oxo-ethyl}-acetamide]",–,–,568,–,–,–,–,–,28,None,–,None,89,75,100,–,maximal decrease in food intake ([7]; 10 mg/kg): 34%
